Experimental data as given in patent publication US6660724B1, “Compounds and pharmaceutical compositions containing them” (Ilex Products, Inc., priority 1995, dated 2003).

Legend:
Lp(a) = settings: man, reported in the literature; cited from earlier work
[1] = high doses necessary for efficacy (4 g/day); cited from earlier work

SMILES	melting point [°C]	effect on Lp(a) levels (Lp(a))	serious side-effects [1]
CCOP(=O)(CNCc1cccnc1-c1cc(OC)c(O)c(OC)c1)OCC	99 to 101		
CCOP(=O)(CNCc1ccnc(-c2cc(OC)c(O)c(OC)c2)c1)OCC	124 to 126		
CC[C@H](C)C(=O)O[C@H]1C[C@@H](C)C=C2C=C[C@H](C)[C@H](CC[C@@H]3C[C@@H](O)CC(=O)O3)[C@H]21 [lovastatin]		do not affect Lp(a) levels	
O=C(O)c1cccnc1 [nicotinic acid]		lower Lp(a)	flushing, vasodilation and hepatotoxicity
CC(C)(Sc1cc(C(C)(C)C)c(O)c(C(C)(C)C)c1)Sc1cc(C(C)(C)C)c(O)c(C(C)(C)C)c1 [probucol]		equally ineffective	
